Assay results taken from patent publication US20240174618A1, “SUBSTITUTED (2-HETEROARYLOXYPHENYL)SULFONATES, SALTS THEREOF AND THEIR USE AS HERBICIDAL AGENTS” (Bayer Aktiengesellschaft, priority 2021, published 2024).

How the values were obtained:
Assay type in all cases: in vivo
Veronica persica (VERPE) = test: C. Herbicidal pre-emergence efficacy, VERPE; conditions: scored after about 3 weeks
Method in brief: (§1)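 Pre-emergence test: formulated compounds sprayed as aqueous suspension or emulsion with 0.5% additive at 600 l/ha onto soil covering sown seeds, at rates corresponding to 320 g/ha or less. After about 3 weeks in greenhouse, efficacy scored visually as percent versus untreated controls (100% = plants dead).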

[1] = system: Alopecurus myosuroides (ALOMY); test: C. Herbicidal pre-emergence efficacy, ALOMY; conditions: scored after about 3 weeks
Method in brief: as §1

Lolium rigidum (LOLRI) [2] = test: A. Herbicidal pre-emergence efficacy, LOLRI
Method in brief: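 Applied before emergence onto covering soil at rates of 1280 g/ha or less, using 600 L/ha spray water with 0.5% additive. Scoring: visual % efficacy after ~3 weeks, greenhouse.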

[3] = system: Amaranthus retroflexus (AMARE); test: E. Herbicidal post-emergence efficacy, AMARE
Method in brief: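 Visual scoring against untreated plants was done roughly 3 weeks after spraying (0% = no effect, 100% = plants dead). Spray application at 320 g/ha or lower, 600 l/ha water with 0.5% additive, was made onto green parts of one-leaf-stage greenhouse plants grown 2-3 weeks in sandy loam.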

[4] = system: Triticum aestivum (TRZAS); test: F. Post-emergence effect on useful plants, TRZAS; conditions: useful plant
Method in brief: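 Visual efficacy rating versus untreated plants, from 0% (no effect) to 100% (plants died), made about 3 weeks after post-emergence treatment. Formulated compounds (WP or EC, 0.5% additive, 600 l/ha water) were sprayed onto greenhouse-grown crops at the one-leaf stage, 2-3 weeks after sowing.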

[5] = system: Echinochloa crus-galli (ECHCG); test: C. Herbicidal pre-emergence efficacy, ECHCG; conditions: scored after about 3 weeks
Method in brief: as §1

[6] = system: Polygonum convolvulus (POLCO); test: C. Herbicidal pre-emergence efficacy, POLCO; conditions: scored after about 3 weeks
Method in brief: as §1

Lolium rigidum (LOLRI) [7] = test: C. Herbicidal pre-emergence efficacy, LOLRI; conditions: 320 g/ha, scored after about 3 weeks
Method in brief: as §1

[8] = system: Triticum aestivum (TRZAS); test: D. Pre-emergence effect on useful plants, TRZAS; conditions: useful plant, application rate 80 g/ha
Method in brief: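 Seeds sown in pots and covered with soil; WP or EC formulations sprayed on the soil surface as aqueous suspension/emulsion with 0.5% additive at 600 l/ha water. Plants grown in greenhouse; crop damage scored visually after about 3 weeks as % versus untreated controls (100% = dead, 0% = like control).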

Kochia scoparia (KCHSC) = test: C. Herbicidal pre-emergence efficacy, KCHSC
Method in brief: as §1

Post-emergence efficacy against TRZAS in % ([4]; application rate 80 g/ha) | Post-emergence efficacy against TRZAS in % ([4]; application rate 320 g/ha) | Pre-emergence efficacy against TRZAS in % [8] | Structure (SMILES) | Pre-emergence efficacy against VERPE (Veronica persica (VERPE); 320 g/ha) | Pre-emergence efficacy against ALOMY ([1]; 320 g/ha) | Pre-emergence efficacy against LOLRI (Lolium rigidum (LOLRI) [2]; dosage 320 g/ha) | Pre-emergence efficacy against LOLRI (Lolium rigidum (LOLRI) [2]; dosage 1280 g/ha) | Post-emergence efficacy against AMARE in % ([3]; application rate 320 g/ha) | Pre-emergence efficacy against ECHCG ([5]; 80 g/ha) | Pre-emergence efficacy against ECHCG ([5]; 320 g/ha) | Pre-emergence efficacy against POLCO ([6]; 320 g/ha) | Pre-emergence efficacy against LOLRI (Lolium rigidum (LOLRI) [7]) | Pre-emergence efficacy against VERPE (Veronica persica (VERPE); 80 g/ha) | Pre-emergence efficacy against ALOMY ([1]; 80 g/ha) | Post-emergence efficacy against AMARE in % ([3]; application rate 80 g/ha) | Pre-emergence efficacy against POLCO ([6]; 80 g/ha) | Pre-emergence efficacy against KCHSC in % (Kochia scoparia (KCHSC); application rate 80 g/ha) | Pre-emergence efficacy against KCHSC in % (Kochia scoparia (KCHSC); application rate 320 g/ha)
0% | 10% | 10% | CCCS(=O)(=O)Oc1ccccc1Oc1ncc(Cl)cn1 [Example I-3] | 100% | 100% | 100% | 100% | 100% | 90% | 100% | 100% | 90% |  |  |  |  |  | 
20% |  | 20% | O=S(=O)(CCC(F)(F)F)Oc1ccccc1Oc1ncc(Cl)cn1 [Example I-8] | 100% | 100% | 90% | 90% | 100% | 100% | 100% | 90% | 100% | 100% | 90% | 100% | 90% |  | 
0% |  | 0% | O=S(=O)(CC1CC1)Oc1ccccc1Oc1ncc(Cl)cn1 [Example I-23] | 100% | 100% | 90% | 90% | 100% | 100% | 100% | 100% | 100% | 100% | 80% | 100% | 100% |  | 
0% | 0% | 0% | Cc1cccc(Oc2ncc(F)cn2)c1OS(=O)(=O)CCC(F)(F)F [Example I-45] |  | 100% | 100% | 100% | 80% | 100% | 100% | 100% | 90% |  |  |  | 100% | 90% | 100%
0% | 10% | 0% | C=CCCS(=O)(=O)Oc1c(F)cccc1Oc1ncc(Cl)cn1 [Example I-50] |  | 90% | 90% | 90% | 100% | 80% | 100% | 90% | 100% |  |  | 100% | 80% | 90% | 100%
0% | 0% | 0% | COCCS(=O)(=O)Oc1c(F)cccc1Oc1ncc(Cl)cn1 [Example I-52] |  | 100% |  | 100% | 100% | 100% | 100% | 100% | 90% |  |  |  | 90% | 100% | 100%
20% |  | 0% | O=S(=O)(CCC(F)=C(F)F)Oc1c(F)cccc1Oc1ncc(Cl)cn1 [Example I-70] | 100% | 100% |  |  | 100% | 90% | 100% | 100% | 100% | 80% |  | 100% | 100% | 100% | 100%
